Results from ChEMBL document CHEMBL1146616, “Synthesis and structure-activity relationships of open D-Ring galanthamine analogues” (Bioorg Med Chem Lett, 2003).

Experiments:
Acetylcholinesterase = Acetylcholinesterase (Electrophorus electricus, UniProt O42275)
Description: In vitro inhibitory activity against acetylcholinesterase (AChE) in Electrophorus electricus

Cholinesterase [1] = target: T1, Cholinesterase (Homo sapiens, UniProt P06276)
Description: In vitro inhibitory activity against Butyrylcholinesterase (BChE) in human serum

Cholinesterase [2] = target: T1, Cholinesterase; assay: Ratio of inhibitory activity against butyrylcholinesterase (BChE) to that of acetylcholinesterase (AChE)

T1 sequence (P06276 whole entry): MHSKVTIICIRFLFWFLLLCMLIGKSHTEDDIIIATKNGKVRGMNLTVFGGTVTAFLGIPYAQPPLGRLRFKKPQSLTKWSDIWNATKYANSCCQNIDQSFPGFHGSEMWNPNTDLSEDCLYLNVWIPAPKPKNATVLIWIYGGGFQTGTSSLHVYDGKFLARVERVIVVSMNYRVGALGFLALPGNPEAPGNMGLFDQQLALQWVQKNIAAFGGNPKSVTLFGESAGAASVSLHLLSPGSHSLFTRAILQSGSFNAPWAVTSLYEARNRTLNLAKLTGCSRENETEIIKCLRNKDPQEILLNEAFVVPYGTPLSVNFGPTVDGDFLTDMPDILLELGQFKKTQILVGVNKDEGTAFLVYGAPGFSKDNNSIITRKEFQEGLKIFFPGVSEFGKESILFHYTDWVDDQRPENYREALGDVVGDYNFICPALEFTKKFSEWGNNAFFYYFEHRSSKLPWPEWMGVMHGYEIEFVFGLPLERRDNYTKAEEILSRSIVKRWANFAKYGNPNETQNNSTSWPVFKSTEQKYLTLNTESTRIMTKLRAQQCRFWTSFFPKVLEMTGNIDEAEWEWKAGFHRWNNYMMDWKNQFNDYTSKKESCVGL
Chain of Acetylcholinesterase (O42275 whole entry): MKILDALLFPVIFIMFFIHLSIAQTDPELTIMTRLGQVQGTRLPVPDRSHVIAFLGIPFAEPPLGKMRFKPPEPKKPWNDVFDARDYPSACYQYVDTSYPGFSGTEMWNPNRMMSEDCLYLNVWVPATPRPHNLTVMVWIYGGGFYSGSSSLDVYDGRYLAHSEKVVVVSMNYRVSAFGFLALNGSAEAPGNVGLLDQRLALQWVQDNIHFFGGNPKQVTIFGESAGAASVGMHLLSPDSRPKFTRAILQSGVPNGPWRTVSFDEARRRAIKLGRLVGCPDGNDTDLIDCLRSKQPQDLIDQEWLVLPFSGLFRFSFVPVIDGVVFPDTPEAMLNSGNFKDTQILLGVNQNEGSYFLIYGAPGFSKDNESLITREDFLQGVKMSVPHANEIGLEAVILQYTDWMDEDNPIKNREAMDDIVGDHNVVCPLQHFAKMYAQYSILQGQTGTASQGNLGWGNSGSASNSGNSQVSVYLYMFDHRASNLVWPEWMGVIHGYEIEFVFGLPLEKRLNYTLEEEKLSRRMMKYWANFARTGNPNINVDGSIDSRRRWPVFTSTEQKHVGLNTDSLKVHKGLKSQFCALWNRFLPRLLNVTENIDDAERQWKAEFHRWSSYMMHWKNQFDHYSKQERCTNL

COc1ccc2c3c1O[C@H]1C[C@@H](O)C=C[C@@]31CCN(C)OC2
IC50 (Acetylcholinesterase): 9900 µM
IC50 (Cholinesterase [1]): 960 µM

CCOC(=O)O[C@H]1C=C[C@@]2(CCN(C)C(=O)OCC)c3c(CCl)ccc(OC)c3O[C@H]2C1
IC50 (Acetylcholinesterase): 650 µM
IC50 (Cholinesterase [1]): 790 µM
Selectivity (Cholinesterase [2]): 1.2

CCOC(=O)N(C)CC[C@@]12C=C[C@H](O)C[C@@H]1Oc1c(OC)ccc(C=O)c12
IC50 (Acetylcholinesterase): 1000 µM
IC50 (Cholinesterase [1]): 155 µM

CCOC(=O)N(C)CC[C@@]12C=C[C@H](O)C[C@@H]1Oc1c(OC)ccc(CO)c12
IC50 (Acetylcholinesterase): 580 µM
IC50 (Cholinesterase [1]): 216 µM

CCOC(=O)N1CC[C@@]23C=C[C@H](O)C[C@@H]2Oc2c(OC)ccc(c23)C1
IC50 (Acetylcholinesterase): 67 µM
IC50 (Cholinesterase [1]): 300 µM
Selectivity (Cholinesterase [2]): 4.5
